Results taken from ChEMBL document CHEMBL5131491, “N6-modification of 7-Deazapurine nucleoside analogues as Anti-Trypanosoma cruzi and anti-Leishmania agents: Structure-activity relationship exploration and In vivo evaluation” (Eur J Med Chem, 2022).
Calls of active or inactive are those of the source. The rule behind the calls is not given here.

Tests used:
[1] = Toxicity in acute CD Swiss Webster mouse model infected with Trypanosoma cruzi Y strain assessed as animal survival at 100 mg/kg, po qd for 5 consecutive days measured daily for upto 30 days post-treatment; format: organism-based; conditions: in vivo, 720 h, time < 30 day
Trypanosoma cruzi [2] = assay: Antitrypanosomal activity against Trypanosoma cruzi Y strain infected in acute CD Swiss Webster mouse model assessed as reduction in parasitemia at 100 mg/kg, po qd for 5 consecutive days by light microscopy relative to control; format: functional; set-up: scale not given: the % may be the effect or the level left; conditions: time 5 day
[3] = Metabolic stability in human liver microsomes S9 fraction assessed as parent compound remaining at 5 uM incubated for 30 min in presence of NADPH by liquid chromatography (reference value: 100 %); format: ADME, Microsome S9 fraction; conditions: read-out: Stability
[4] = Toxicity in early curative hamster model assessed as weight loss at 50 mg/kg, po qd for 4 days measured on day 2; format: organism-based, Cricetulus griseus; conditions: chinese hamster, in vivo, 96 h, time 4 day
Trypanosoma cruzi [5] = assay: Antitrypanosomal activity against bloodstream extracellular Trypanosoma cruzi Y strain trypomastigotes assessed as reduction in parasite growth incubated for 96 hrs by light microscope; format: functional, organism-based
Trypanosoma cruzi [6] = assay: Antitrypanosomal activity against Trypanosoma cruzi Y strain infected in acute CD Swiss Webster mouse model assessed as reduction in parasitemia at 12.5 to 25 mg/kg, po qd administered for 5 consecutive days by light microscopy; format: functional, organism-based; conditions: dose 12.5-25 mg/kg, time 5.0 day
[7] = Metabolic stability in human liver microsomes S9 fraction assessed as parent compound remaining at 5 uM incubated for 60 min in presence of UGT by liquid chromatography (reference value: 100 %); format: ADME, Microsome S9 fraction; conditions: read-out: Stability
[8] = Metabolic stability in hamster liver microsomes S9 fraction assessed as parent compound remaining at 5 uM incubated for 60 min in presence of UGT by liquid chromatography (reference value: 100 %); format: ADME, Cricetulus griseus, Microsome S9 fraction; conditions: chinese hamster, 1 h
Leishmania infantum [9] = assay: Antileishmanial activity against extracellular Leishmania infantum […] MIL5C13 promastigotes assessed as reduction in parasite growth incubated for 96 hrs by light microscopy; format: functional, organism-based
[10] = Metabolic stability in human liver microsomes S9 fraction assessed as parent compound remaining at 5 uM incubated for 15 min in presence of UGT by liquid chromatography (reference value: 100 %); format: ADME, Microsome S9 fraction; conditions: read-out: Stability
[11] = Metabolic stability in mouse liver microsomes S9 fraction assessed as parent compound remaining at 5 uM incubated for 15 mins in presence of NADPH by liquid chromatography (reference value: 100 %); format: ADME, Microsome S9 fraction; conditions: read-out: Stability
[12] = Metabolic stability in mouse liver microsomes S9 fraction assessed as parent compound remaining at 5 uM incubated for 60 mins in presence of NADPH by liquid chromatography (reference value: 100 %); format: ADME, Microsome S9 fraction; conditions: read-out: Stability
Trypanosoma cruzi [13] = assay: Antitrypanosomal activity against Trypanosoma cruzi Y strain infected in acute CD Swiss Webster mouse model assessed as reduction in parasitemia at 50 mg/kg, po qd for 5 consecutive days by light microscopy relative to control; format: functional; set-up: scale not given: the % may be the effect or the level left; conditions: time 5 day
[14] = Metabolic stability in mouse liver microsomes S9 fraction assessed as parent compound remaining at 5 uM incubated for 30 min in presence of UGT by liquid chromatography (reference value: 100 %); format: ADME, Microsome S9 fraction; conditions: read-out: Stability
[15] = Metabolic stability in hamster liver microsomes S9 fraction assessed as parent compound remaining at 5 uM incubated for 30 min in presence of NADPH by liquid chromatography (reference value: 100 %); format: ADME, Cricetulus griseus, Microsome S9 fraction; conditions: chinese hamster, read-out: Stability
[16] = Toxicity in early curative hamster model assessed as severe toxicity at 50 mg/kg, po qd for 4 days measured on day 5; format: organism-based, Cricetulus griseus; conditions: chinese hamster, in vivo, 120 h, time 5 day
[17] = Acute toxicity in acute CD Swiss Webster mouse model infected with Trypanosoma cruzi Y strain assessed as weight loss at 12.5 to 50 mg/kg, po qd administered for 5 consecutive days measured once a week; format: organism-based; conditions: in vivo, 120 h, dose 12.5-50 mg/kg, time 5 day
[18] = Metabolic stability in mouse liver microsomes S9 fraction assessed as parent compound remaining at 5 uM incubated for 30 mins in presence of NADPH by liquid chromatography (reference value: 100 %); format: ADME, Microsome S9 fraction; conditions: read-out: Stability
[19] = Cytotoxicity against human MRC5 fibroblast cells assessed as reduction in cell viability measured after 3 days by fluorometry; format: toxicity, cell-based; conditions: time 3 day
[20] = Acute toxicity in acute CD Swiss Webster mouse model infected with Trypanosoma cruzi Y strain assessed as survival rate at 25 mg/kg, po administered for 5 consecutive days measured after 55 days post treatment (reference value: 100 %); format: organism-based; conditions: in vivo, time 55 day
[21] = Acute toxicity in acute CD Swiss Webster mouse model infected with Trypanosoma cruzi Y strain assessed as survival rate at 12.5 mg/kg, po administered for 5 consecutive days measured after 55 days post treatment (reference value: 100 %); format: organism-based; conditions: in vivo, time 55 day
Trypanosoma cruzi [22] = assay: Antitrypanosomal activity against Trypanosoma cruzi Y strain infected in acute CD Swiss Webster mouse model assessed as reduction in parasitemia at 12.5 mg/kg, po qd for 5 consecutive days by light microscopy relative to control; format: functional; set-up: scale not given: the % may be the effect or the level left; conditions: time 5 day
[23] = Metabolic stability in mouse liver microsomes S9 fraction assessed as parent compound remaining at 5 uM incubated for 15 min in presence of UGT by liquid chromatography (reference value: 100 %); format: ADME, Microsome S9 fraction; conditions: read-out: Stability
[24] = Selectivity index, ratio of CC50 for human MRC-5 cells to EC50 for antitrypanosomal activity against intracellular Trypanosoma cruzi Tulahuen amastigotes expressing CL2 beta-galactosidase in human MRC5 cells; format: toxicity, cell-based; conditions: read-out: Selectivity Index
[25] = Selectivity index, ratio of CC50 for Swiss mouse peritoneal macrophages to EC50 for antileishmanial activity against intracellular Leishmania infantum MHOM/MA(BE)/67 amastigotes infected in Swiss mouse peritoneal macrophages; format: toxicity, cell-based; conditions: read-out: Selectivity Index
[26] = Metabolic stability in mouse liver microsomes S9 fraction assessed as parent compound remaining at 5 uM incubated for 60 min in presence of UGT by liquid chromatography (reference value: 100 %); format: ADME, Microsome S9 fraction; conditions: read-out: Stability
[27] = Metabolic stability in hamster liver microsomes S9 fraction assessed as parent compound remaining at 5 uM incubated for 30 min in presence of UGT by liquid chromatography (reference value: 100 %); format: ADME, Cricetulus griseus, Microsome S9 fraction; conditions: chinese hamster, read-out: Stability
[28] = Cytotoxicity against Swiss mouse peritoneal macrophages assessed as reduction in cell viability measured after 5 days by microscopic analysis; format: toxicity, cell-based, Macrophage; conditions: time 5 day
Trypanosoma cruzi [29] = assay: Antitrypanosomal activity against Trypanosoma cruzi Y strain infected in acute CD Swiss Webster mouse model assessed as reduction in parasitemia at 25 mg/kg, po qd for 5 consecutive days by light microscopy relative to control; format: functional; set-up: scale not given: the % may be the effect or the level left; conditions: time 5 day
Leishmania infantum [30] = assay: Antileishmanial activity against intracellular Leishmania infantum MHOM/MA(BE)/67 amastigotes infected in Swiss mouse peritoneal macrophages assessed as parasite growth inhibition incubated for 5 days by giemsa staining based microscopic analysis; format: functional, organism-based; conditions: MHOM/MA(BE)/67, Macrophage, 120 h
[31] = Metabolic stability in hamster liver microsomes S9 fraction assessed as parent compound remaining at 5 uM incubated for 60 min in presence of NADPH by liquid chromatography (reference value: 100 %); format: ADME, Cricetulus griseus, Microsome S9 fraction; conditions: chinese hamster, read-out: Stability
[32] = Metabolic stability in hamster liver microsomes S9 fraction assessed as parent compound remaining at 5 uM incubated for 15 min in presence of UGT by liquid chromatography (reference value: 100 %); format: ADME, Cricetulus griseus, Microsome S9 fraction; conditions: chinese hamster, read-out: Stability
[33] = Metabolic stability in hamster liver microsomes S9 fraction assessed as parent compound remaining at 5 uM incubated for 15 min in presence of NADPH by liquid chromatography (reference value: 100 %); format: ADME, Cricetulus griseus, Microsome S9 fraction; conditions: chinese hamster, read-out: Stability
[34] = Toxicity in acute CD Swiss Webster mouse model infected with Trypanosoma cruzi Y strain assessed as animal survival at 50 mg/kg, po qd for 5 consecutive days measured daily for upto 30 days post-treatment; format: organism-based; conditions: in vivo, 720 h, time < 30 day
[35] = Acute toxicity in acute CD Swiss Webster mouse model infected with Trypanosoma cruzi Y strain assessed as maximum tolerated dose administered orally once daily for 5 consecutive days; conditions: in vivo, route po, time 5 day
[36] = Metabolic stability in human liver microsomes S9 fraction assessed as parent compound remaining at 5 uM incubated for 15 min in presence of NADPH by liquid chromatography (reference value: 100 %); format: ADME, Microsome S9 fraction; conditions: read-out: Stability
Leishmania infantum [37] = assay: Antileishmanial activity against extracellular Leishmania infantum LEM3323-C14 promastigotes assessed as reduction in parasite growth incubated for 96 hrs by light microscope; format: functional, organism-based; conditions: LEM3323-C14, 96 h
[38] = Metabolic stability in human liver microsomes S9 fraction assessed as parent compound remaining at 5 uM incubated for 60 min in presence of NADPH by liquid chromatography (reference value: 100 %); format: ADME, Microsome S9 fraction; conditions: read-out: Stability
[39] = Metabolic stability in human liver microsomes S9 fraction assessed as parent compound remaining at 5 uM incubated for 30 min in presence of UGT by liquid chromatography (reference value: 100 %); format: ADME, Microsome S9 fraction; conditions: read-out: Stability
Trypanosoma cruzi [40] = assay: Antitrypanosomal activity against intracellular Trypanosoma cruzi Tulahuen amastigotes expressing CL2 beta-galactosidase in human MRC5 cells assessed as parasite growth inhibition using chlorophenol red beta-D-galactopyranoside as substrate treated for 7 days by spectrophotometry; format: functional, organism-based; conditions: MRC5, 168 h
[41] = Toxicity in early curative hamster model assessed as clinical symptoms of toxicity at 50 mg/kg, po qd for 4 days; format: organism-based, Cricetulus griseus; conditions: chinese hamster, in vivo, 96 h, time 4 day
Leishmania infantum [42] = assay: Antileishmanial activity against extracellular Leishmania infantum […] PMM promastigotes assessed as reduction in parasite growth incubated for 96 hrs by light microscopy; format: functional, organism-based

O=C(Cn1ccnc1[N+](=O)[O-])NCc1ccccc1 [BENZNIDAZOLE]
Survival [1]: Non-Toxic
Activity (Trypanosoma cruzi [2]): 100%

CNc1ncnc2c1ccn2[C@@H]1O[C@H](CO)[C@@H](O)[C@H]1O
remaining at 0.5 h, 5 µM [3]: 95%
Activity [4]: Toxic
EC50 (Trypanosoma cruzi [5]): > 24000 nM
Activity (Trypanosoma cruzi [6]): Active
remaining at 1 h, 5 µM [7]: 104%
Stability [8]: 116%
EC50 (Leishmania infantum [9]): 2380 nM
remaining at 0.25 h, 5 µM [10]: 99%
remaining at 0.25 h, 5 µM [11]: 96%
remaining at 1 h, 5 µM [12]: 107%
Activity (Trypanosoma cruzi [13]): 96%
remaining at 0.5 h, 5 µM [14]: 105%
remaining at 0.5 h, 5 µM [15]: 93%
Activity [16]: Toxic
Activity [17]: Toxic
remaining at 0.5 h, 5 µM [18]: 96%
CC50 at 72 h [19]: > 64000 nM
survival at 1320 h [20]: 66.7%
survival at 1320 h [21]: 83.3%
Activity (Trypanosoma cruzi [22]): 75%
remaining at 0.25 h, 5 µM [23]: 103%
selectivity ratio [24]: > 142
selectivity ratio [25]: > 131
remaining at 1 h, 5 µM [26]: 98%
remaining at 0.5 h, 5 µM [27]: 102%
CC50 at 120 h [28]: > 64000 nM
Activity (Trypanosoma cruzi [29]): 89%
EC50 (Leishmania infantum [30]): 490 nM
remaining at 1 h, 5 µM [31]: 103%
remaining at 0.25 h, 5 µM [32]: 102%
remaining at 0.25 h, 5 µM [33]: 97%
Survival [34]: Toxic
MTD at 120 h [35]: 12.5 mg/kg/day
remaining at 0.25 h, 5 µM [36]: 108%
EC50 (Leishmania infantum [37]): 8000 nM
remaining at 1 h, 5 µM [38]: 105%
remaining at 0.5 h, 5 µM [39]: 104%
EC50 (Trypanosoma cruzi [40]): 450 nM
Activity [41]: Toxic
EC50 (Leishmania infantum [42]): 2000 nM
